Cc1c(OCC(F)(F)F)ccnc1CS(=O)c1nc2ccccc2[nH]1 (stereo unspecified)
solubility (mole fraction) (in 2-butanone, 283.15 K): 0.00289 | solubility (mole fraction) (in 2-butanone, 288.15 K): 0.00349 | solubility (mole fraction) (in 2-butanone, 293.15 K): 0.00412 | solubility (mole fraction) (in 2-butanone, 298.15 K): 0.00489 | solubility (mole fraction) (in 2-butanone, 303.15 K): 0.00578 | solubility (mole fraction) (in 2-butanone, 308.15 K): 0.00697 | solubility (mole fraction) (in 2-butanone, 313.15 K): 0.0083 | solubility (mole fraction) (in MIBK, 283.15 K): 0.0013 | solubility (mole fraction) (in MIBK, 288.15 K): 0.00154 | solubility (mole fraction) (in MIBK, 293.15 K): 0.00183 | solubility (mole fraction) (in MIBK, 298.15 K): 0.00216 | solubility (mole fraction) (in MIBK, 303.15 K): 0.00255 | solubility (mole fraction) (in MIBK, 308.15 K): 0.00307 | solubility (mole fraction) (in MIBK, 313.15 K): 0.00362 | solubility (mole fraction) (in acetone, 283.15 K): 0.00249 | solubility (mole fraction) (in acetone, 290.15 K): 0.0031 | solubility (mole fraction) (in acetone, 297.15 K): 0.00395 | solubility (mole fraction) (in acetone, 304.15 K): 0.00494 | solubility (mole fraction) (in acetone, 311.15 K): 0.00626 | solubility (mole fraction) (in acetone, 318.15 K): 0.00801 | solubility (mole fraction) (in ethyl acetate, 283.15 K): 0.00137 | solubility (mole fraction) (in ethyl acetate, 288.15 K): 0.00164 | solubility (mole fraction) (in ethyl acetate, 293.15 K): 0.002 | solubility (mole fraction) (in ethyl acetate, 298.15 K): 0.00245 | solubility (mole fraction) (in ethyl acetate, 303.15 K): 0.00291 | solubility (mole fraction) (in ethyl acetate, 308.15 K): 0.00343 | solubility (mole fraction) (in ethyl acetate, 313.15 K): 0.00416 | solubility (mole fraction) (in ethyl acetate, 318.15 K): 0.00469 | solubility (mole fraction) (in isobutyl acetate, 283.15 K): 0.000784 | solubility (mole fraction) (in isobutyl acetate, 288.15 K): 0.000965 | solubility (mole fraction) (in isobutyl acetate, 293.15 K): 0.00117 | solubility (mole fraction) (in isobutyl acetate, 298.15 K): 0.00136 | solubility (mole fraction) (in isobutyl acetate, 303.15 K): 0.00161 | solubility (mole fraction) (in isobutyl acetate, 308.15 K): 0.00193 | solubility (mole fraction) (in isobutyl acetate, 313.15 K): 0.00228 | solubility (mole fraction) (in isopropanol, 283.15 K): 0.00082 | solubility (mole fraction) (in isopropanol, 288.15 K): 0.000922 | solubility (mole fraction) (in isopropanol, 293.15 K): 0.00124 | solubility (mole fraction) (in isopropanol, 298.15 K): 0.00161 | solubility (mole fraction) (in isopropanol, 303.15 K): 0.00202 | solubility (mole fraction) (in isopropanol, 308.15 K): 0.00261 | solubility (mole fraction) (in isopropanol, 313.15 K): 0.00333 | solubility (mole fraction) (in isopropanol, 318.15 K): 0.00422 | solubility (mole fraction) (in n-butanol, 283.15 K): 0.0012 | solubility (mole fraction) (in n-butanol, 288.15 K): 0.00166 | solubility (mole fraction) (in n-butanol, 293.15 K): 0.00215 | solubility (mole fraction) (in n-butanol, 298.15 K): 0.0027 | solubility (mole fraction) (in n-butanol, 303.15 K): 0.00336 | solubility (mole fraction) (in n-butanol, 308.15 K): 0.00419 | solubility (mole fraction) (in n-butanol, 313.15 K): 0.00515 | solubility (mole fraction) (in n-butyl acetate, 283.15 K): 0.000987 | solubility (mole fraction) (in n-butyl acetate, 288.15 K): 0.0012 | solubility (mole fraction) (in n-butyl acetate, 293.15 K): 0.00144 | solubility (mole fraction) (in n-butyl acetate, 298.15 K): 0.00172 | solubility (mole fraction) (in n-butyl acetate, 303.15 K): 0.00195 | solubility (mole fraction) (in n-butyl acetate, 308.15 K): 0.00232 | solubility (mole fraction) (in n-butyl acetate, 313.15 K): 0.00271 | solubility (mole fraction) (in n-pentanol, 283.15 K): 0.00138 | solubility (mole fraction) (in n-pentanol, 288.15 K): 0.00184 | solubility (mole fraction) (in n-pentanol, 293.15 K): 0.00227 | solubility (mole fraction) (in n-pentanol, 298.15 K): 0.00281 | solubility (mole fraction) (in n-pentanol, 303.15 K): 0.00344 | solubility (mole fraction) (in n-pentanol, 308.15 K): 0.00412 | solubility (mole fraction) (in n-pentanol, 313.15 K): 0.00518 | solubility (mole fraction) (in n-propanol, 283.15 K): 0.00166 | solubility (mole fraction) (in n-propanol, 288.15 K): 0.00206 | solubility (mole fraction) (in n-propanol, 293.15 K): 0.0026 | solubility (mole fraction) (in n-propanol, 298.15 K): 0.00314 | solubility (mole fraction) (in n-propanol, 303.15 K): 0.00388 | solubility (mole fraction) (in n-propanol, 308.15 K): 0.00468 | solubility (mole fraction) (in n-propanol, 313.15 K): 0.00588
